The source of these data is PMC5259778, “Candidate pheromone receptors of codling moth Cydia pomonella respond to pheromones and kairomones” (Scientific Reports, 2017).

Test [1] deals with CpomOR1. Briefly: Single sensillum recordings, CpomOR1 expressed in Drosophila at1 OSNs. It counts as cell-based, Cydia pomonella. The conditions noted are these: 10 μg per stimulus. The text has this: (§1) To perform heterologous expression in D. melanogaster OSNs, CpomORs were amplified using primers in Table 2 and purified PCR products were cloned into the PCR8/GW/TOPO plasmid (Invitrogen) following the recommended protocol. Cassettes with inserts were then transferred from their PCR8/GW/TOPO plasmids to the destination vector (pUASg-HA.attB, constructed by E. Furger and J. Bischof, kindly provided by the Basler group, Zürich), using the Gateway LR Clonase II kit (Invitrogen). The integrity and orientation of inserts was confirmed by sequencing (Sanger sequencer, 3730xl). Transformant UAS-CpomOR3 and UAS-CpomOR1 lines were generated by Best Gene (Chino Hills, CA, USA), using the PhiC31 integrase system, while the transformant UAS-CpomOR6a line was generated in our labs. Briefly, recombinant pUASg-HA.attB-CpomOR plasmids were injected into embryos of a D. melanogaster line containing an attP insertion site within the third chromosome (genotype y1 M{vas-int.Dm}ZH-2A w*; M{3xP3-RFP.attP}ZH-86Fb), leading to non-random integration. To drive expression of CpomORs in at1 OSNs in place of the endogenous receptor Or67d, transformant UAS-CpomOR lines were crossed to the knock-in Or67d^GAL4 line (kindly provided by Barry Dickson) to generate double homozygous lines w^+;UAS-CpomOR; Or67d^GAL4. Additionally, to drive expression of CpomOR3 in ab3A OSNs, the UAS-CpomOR3 line was crossed to the Δhalo;Or22a-Gal4 mutant line[20][57]. To verify insertion of UAS-CpomORs constructs into the genome, gDNA was extracted and used as template in PCR with primers for the full ORF of CpomORs (Table 2).
(§2) CpomOR1 and CpomOR6a expressed in at1 OSNs, and CpomOR3 expressed in ab3A OSNs, were tested through single sensillum recordings (SSR). Three to 8-day-old flies were immobilized in 100 μL pipette tips with only the top half of the head protruding. The left antenna of each insect was gently pushed with a glass capillary against a double-sided adhesive tape placed on a piece of glass. This piece of glass and the pipette tip were fixed with dental wax on a microscope slide. Electrolytically sharpened tungsten electrodes (Harvard Apparatus Ltd, Edenbridge, United Kingdom) were used to penetrate the insect´s body. The reference electrode was manually inserted in the right eye of the fly, while the recording electrode was manoeuvred with a DC-3K micromanipulator equipped with a PM-10 piezo translator (Märzhäuser Wetzler GmbH, Wetzler, Germany) and inserted at the base of the determined sensilla. Signals coming from the olfactory sensory neurons were amplified 10 times with a probe (INR-02, Syntech, Hilversum, the Netherlands), digitally converted through an IDAC-4-USB (Syntech) interface, and visualized and analysed with the software Autospike v. 3.4 (Syntech). A constant flow of 0.65 m/s of humidified air (charcoal-filtered) was delivered through a glass tube to the antenna. The panel of odorants was given to the insect by inserting pipettes containing a piece of filter paper with the correspondent stimulus in a lateral hole of the glass tube and puffing a flow of 2.5 mL of air during 0.5 s through the pipette. For CpomOR1 and CpomOR6a the panel of odorants was prepared by applying 10 μL of a solution of 1.0 μg/μL of the compounds in Supplementary Dataset S2 and Supplementary Dataset S3, for a total amount of 10 μg per stimulus. In the case of CpomOR3, a similar dilution process was used for the dose response experiments of ethyl-(E,Z)-2,4-decadienoate and methyl-(E,Z)-2,4-decadienoate, as well for dose response of experiments of codlemone acetate in CpomOR6a. Compounds were diluted from concentrations ranging from 0.01 ng/μL to 10 μg/μL in decadic steps, allowing reaching concentrations from 100 pg to 100 μg per stimulus when 10 μL of the dilution was applied in the piece of filter paper. […]

Test [2] has as its system CpomOR6a. Briefly: Single sensillum recordings, CpomOR6a expressed in Drosophila at1 OSNs. Format: cell-based, Cydia pomonella. The settings on record: for Spike/s: 10 μg per stimulus; for response compared with the solvent: 10 μg doses, Mann-Whitney U Test, p < 0.05.
Source text: as §1, §2

For the molecule `CCCCCCCCCCCCO` [1-dodecanol], the Spikes/s in test [1] (replicate 1) is -2 Spikes/s; in test [1] (replicate 2), 4 Spikes/s; in test [1] (replicate 3), 2 Spikes/s; in test [1] (replicate 4), -2 Spikes/s; in test [1] (replicate 5), 2 Spikes/s.
Regarding `C=C/C=C(\C)CCC=C(C)C` [4,8-Dimethyl-1,(E)-3,7-nonatriene], the Spikes/s in test [1] (replicate 1) was 2 Spikes/s; in test [1] (replicate 2) it was -6 Spikes/s; in test [1] (replicate 3), 2 Spikes/s; in test [1] (replicate 4) it was 4 Spikes/s; in test [1] (replicate 5), -8 Spikes/s.
Turning to `CCC/C=C/CCCCCCCO` [(E8)-12:OH], the Spikes/s in test [1] (replicate 1) is on record as -2 Spikes/s; in test [1] (replicate 2), 4 Spikes/s; in test [1] (replicate 3) it was 0 Spikes/s; in test [1] (replicate 4), 0 Spikes/s; in test [1] (replicate 5), 2 Spikes/s.
For the molecule `C/C=C\C=C\CCCCCCCO` [(E8,Z10)-12:OH], the Spikes/s in test [1] (replicate 1) is listed as -2 Spikes/s; in test [1] (replicate 2) it was -2 Spikes/s; in test [1] (replicate 3) it was 0 Spikes/s; in test [1] (replicate 4) it was -2 Spikes/s; in test [1] (replicate 5), -2 Spikes/s.
As to `CC/C=C/CCCCCCCCO` [(E9)-12:OH], the Spikes/s in test [1] (replicate 1) is given as -4 Spikes/s; in test [1] (replicate 2), 0 Spikes/s; in test [1] (replicate 3), 2 Spikes/s; in test [1] (replicate 4) it was 4 Spikes/s; in test [1] (replicate 5), -2 Spikes/s.
As for `C/C=C/CCCCCCCCCO` [(E10)-12:OH], the Spikes/s in test [1] (replicate 1) is recorded as -2 Spikes/s; in test [1] (replicate 2), -2 Spikes/s; in test [1] (replicate 3), 0 Spikes/s; in test [1] (replicate 4), -4 Spikes/s; in test [1] (replicate 5), 2 Spikes/s.
As for `CCC/C=C/CCCCCCCOC(C)=O` [(E)-8:12Ac, (E)-8-dodecadien-1-yl acetate], the Spike/s in test [2] (replicate 1) was determined as 10 Spike/s; in test [2] (replicate 2) it was 0 Spike/s; in test [2] (replicate 3), 4 Spike/s; in test [2] (replicate 4), 4 Spike/s; in test [2] (replicate 5), 12 Spike/s; in test [2] (replicate 6), 26 Spike/s. The results for the Spike/s in test [2] (replicate 7), in test [2] (replicate 8) and in test [2] (replicate 9) were 30 Spike/s, 30 Spike/s and 10 Spike/s, respectively.
For the molecule `C/C=C/CCCCCCCCCOC(C)=O` [(E)-10:12Ac, (E)-10-dodecadien-1-yl acetate], the “response compared with the solvent” value in test [2] is given as “significantly activated”. Also, the Spike/s was 26 Spike/s in test [2] (replicate 1); 26 Spike/s in test [2] (replicate 2); 28 Spike/s in test [2] (replicate 3); 60 Spike/s in test [2] (replicate 4); 34 Spike/s in test [2] (replicate 5); 36 Spike/s in test [2] (replicate 6). In addition, the Spike/s in test [2] (replicate 7) is listed as 50 Spike/s; in test [2] (replicate 8) it was 66 Spike/s; in test [2] (replicate 9), 26 Spike/s.
For `C=CC(=C)CC/C=C(\C)CCC=C(C)C` [(E)-β-farnesene], the Spikes/s came out at 0 Spikes/s in test [1] (replicate 1); 4 Spikes/s in test [1] (replicate 2); 2 Spikes/s in test [1] (replicate 3); 0 Spikes/s in test [1] (replicate 4); 2 Spikes/s in test [1] (replicate 5).
Consider `C=C/C(C)=C/CC=C(C)C` [(E)-β-ocimene], for which the Spikes/s in test [1] (replicate 1) was 2 Spikes/s; in test [1] (replicate 2) it was 8 Spikes/s; in test [1] (replicate 3), 0 Spikes/s; in test [1] (replicate 4) it was 2 Spikes/s; in test [1] (replicate 5), 4 Spikes/s.
In the case of `C/C=C\C=C\CCCCCCCOC(C)=O` [(E,Z)-8,10:12Ac, (E,Z)-8,10-dodecadien-1yl acetate], in test [2], the “response compared with the solvent” value is given as “significantly activated”. Further, the Spike/s turned out to be 6 Spike/s in test [2] (replicate 1); 10 Spike/s in test [2] (replicate 2); 16 Spike/s in test [2] (replicate 3); 6 Spike/s in test [2] (replicate 4); 8 Spike/s in test [2] (replicate 5); 24 Spike/s in test [2] (replicate 6). For the same molecule, the Spike/s is listed as 16 Spike/s in test [2] (replicate 7), 34 Spike/s in test [2] (replicate 8) and 2 Spike/s in test [2] (replicate 9).
In the case of `C/C=C/C=C\CCCCCCCO` [(Z8,E10)-12:OH], the Spikes/s in test [1] (replicate 1) is given as 0 Spikes/s; in test [1] (replicate 2), 0 Spikes/s; in test [1] (replicate 3), 6 Spikes/s; in test [1] (replicate 4) it was 8 Spikes/s; in test [1] (replicate 5) it was -4 Spikes/s.
Consider `C/C=C\C=C/CCCCCCCO` [(Z8,Z10)-12:OH], for which the Spikes/s is recorded as -2 Spikes/s in test [1] (replicate 1); 0 Spikes/s in test [1] (replicate 2); 0 Spikes/s in test [1] (replicate 3); 4 Spikes/s in test [1] (replicate 4); 12 Spikes/s in test [1] (replicate 5).
Turning to `CCC/C=C\CCCCCCCOC(C)=O` [(Z)-8:12Ac, (Z)-8-dodecadien-1yl acetate], the Spike/s in test [2] (replicate 1) is on record as 0 Spike/s; in test [2] (replicate 2), 0 Spike/s; in test [2] (replicate 3), 0 Spike/s; in test [2] (replicate 4), 4 Spike/s; in test [2] (replicate 5) it was -2 Spike/s; in test [2] (replicate 6), 22 Spike/s. Further, the Spike/s in test [2] (replicate 7) is reported as 32 Spike/s; in test [2] (replicate 8), 6 Spike/s; in test [2] (replicate 9) it was -8 Spike/s.
For the molecule `C/C=C\CCCCCCCCCOC(C)=O` [(Z)-10:12Ac, (Z)-10-dodecadien-1-yl acetate], the Spike/s in test [2] (replicate 1) is reported as 0 Spike/s; in test [2] (replicate 2), 6 Spike/s; in test [2] (replicate 3) it was 2 Spike/s; in test [2] (replicate 4), 2 Spike/s; in test [2] (replicate 5), 6 Spike/s; in test [2] (replicate 6), 12 Spike/s. Moreover, the results for the Spike/s in test [2] (replicate 7), in test [2] (replicate 8) and in test [2] (replicate 9) were 14 Spike/s, 4 Spike/s and 4 Spike/s, respectively.
Take `C/C=C/C=C\CCCCCCCOC(C)=O` [(Z,E)-8,10:12Ac, (Z,E)-8,10-dodecadien-1yl acetate]: the Spike/s in test [2] (replicate 1) is 10 Spike/s; in test [2] (replicate 2), 2 Spike/s; in test [2] (replicate 3), -4 Spike/s; in test [2] (replicate 4), 8 Spike/s; in test [2] (replicate 5) it was 0 Spike/s; in test [2] (replicate 6) it was 18 Spike/s. For the same molecule, the figures for the Spike/s in test [2] (replicate 7), in test [2] (replicate 8) and in test [2] (replicate 9) were 26 Spike/s, 40 Spike/s and 10 Spike/s, respectively.
Turning to `C/C=C\C=C/CCCCCCCOC(C)=O` [(Z,Z)-8,10:12Ac, (Z,Z)-8,10-dodecadien-1yl acetate], the “response compared with the solvent” value in test [2] is reported as “significantly activated”. Besides, the Spike/s in test [2] (replicate 1) is recorded as 14 Spike/s; in test [2] (replicate 2), 12 Spike/s; in test [2] (replicate 3), 10 Spike/s; in test [2] (replicate 4) it was 16 Spike/s; in test [2] (replicate 5) it was 20 Spike/s; in test [2] (replicate 6), 20 Spike/s. Also, the Spike/s in test [2] (replicate 7) is recorded as 10 Spike/s; in test [2] (replicate 8), 32 Spike/s; in test [2] (replicate 9) it was 12 Spike/s.
Turning to Dodecadien-1-yl acetate [12Ac], the Spike/s in test [2] (replicate 1) was 4 Spike/s; in test [2] (replicate 2) it was 4 Spike/s; in test [2] (replicate 3), -2 Spike/s; in test [2] (replicate 4) it was 6 Spike/s; in test [2] (replicate 5), 10 Spike/s; in test [2] (replicate 6) it was 6 Spike/s. In addition, the values for the Spike/s in test [2] (replicate 7), in test [2] (replicate 8) and in test [2] (replicate 9) were 0 Spike/s, 12 Spike/s and -12 Spike/s, respectively.
